Read-outs that look alike come from different tables or passages of the source.
Columns and labels:
DGKα = DGKα (Homo sapiens (Human), UniProt P23743); test: Assay 1: In Vitro DGK Inhibition Assays, Method A (DGKα LIPGLO, extruded liposome); assay type: biochemical; conditions: extruded liposome substrate, 150 μM ATP
Description: (§1) Assay 1: In Vitro DGK Inhibition Assays—Method A
(§2) The DGKα and DGKζ reactions were performed using either extruded liposome (DGKα and DGKζ LIPGLO assays) or detergent/lipid micelle substrate (DGKα and DGKζ assays). The reactions were carried out in 50 mM MOPS pH 7.5, 100 mM NaCl, 10 mM MgCl2, 1 μM CaCl2), and 1 mM DTT (assay buffer). The reactions using a detergent/lipid micelle substrate also contained 50 mM octyl B-D-glucopyranoside. The lipid substrate concentrations were 11 mM PS and 1 mM DAG for the detergent/lipid micelle reactions. The lipid substrate concentrations were 2 mM PS, 0.25 mM DAG, and 2.75 mM PC for the extruded liposome reactions. The reactions were carried out in 150 μM ATP. The enzyme concentrations for the DGKα and DGKζ were 5 nM
(§3) The compound inhibition studies were carried out as follows: 50 nL droplets of each test compound (top concentration 10 mM with 11 point, 3-fold dilution series for each compound) solubilized in DMSO were transferred to wells of a white 1536 well plate (Corning 3725). A 5 mL enzyme/substrate solution at 2× final reaction concentration was prepared by combining 2.5 mL 4× enzyme solution (20 nM DGKα or DGKζ (prepared as described below) in assay buffer) and 2.5 mL of either 4× liposome or 4× detergent/lipid micelle solution (compositions described below) and incubated at room temperature for 10 minutes. Next, 1 μL 2× enzyme/substrate solution was added to wells containing the test compound and reactions were initiated with the addition of 1 μL 300 uM ATP. The reactions were allowed to proceed for 1 hr, after which 2 μL Glo Reagent (Promega V9101) was added and incubated for 40 minutes. Next, 4 μL Kinase Detection Reagent was added and incubated for 30 minutes. Luminescence was recorded using an EnVision microplate reader. […] The compounds were evaluated at 11 concentrations to determine IC50.
(§4) The lipid composition was 5 mol % DAG (Avanti 8008110), 40 mol % PS (Avanti 840035P), and 55 mol % PC (Avanti 850457) at a total lipid concentration of 15.2 mg/mL for the 4× liposome solution. The PC, DAG, and PS were dissolved in chloroform, combined, and dried in vacuo to a thin film. The lipids were hydrated to 20 mM in 50 mM MOPS pH 7.5, 100 mM NaCl, 5 mM MgCl2, and were freeze-thawed five times. The lipid suspension was extruded through a 100 nm polycarbonate filter eleven times. […] The liposome preparation was stored at 4° C. for as long as four weeks.
(§5) Baculovirus amplification was achieved using infected Sf9 cells at 1:1500 virus/cell ratios, and grown for 65 hours at 27° C. post-transfection.
(§6) The cells were lysed using nitrogen cavitation method with a nitrogen bomb (Parr Instruments), and the lysates were clarified by centrifugation. […] The three steps column chromatography included nickel affinity resin capture (i.e. HisTrap FF crude, GE Healthcare), followed by size exclusion chromatography (i.e. HiLoad 26/600 Superdex 200 prep grade, GE Healthcare for DGK-alpha, and HiPrep 26/600 Sephacryl S 300_HR, GE Healthcare for DGK-zeta). The third step was ion exchange chromatography, and differed for the two isoforms. DGKα was polished using Q-Sepharose anion exchange chromatography (GE Healthcare). DGKζ was polished using SP Sepharose cation exchange chromatography (GE Healthcare). The proteins were delivered at concentrations of ≥2 mg/mL. The formulation buffers were identical for both proteins: 50 mM Hepes, pH 7.2, 500 mM NaCl, 10% v/v glycerol, 1 mM TCEP, and 0.5 mM EDTA.

DGKζ = DGKζ (Homo sapiens (Human), UniProt Q13574); test: Assay 1 or 2: In Vitro DGK Inhibition Assays (DGKζ LIPGLO, extruded liposome); assay type: biochemical; conditions: extruded liposome substrate, 150 μM ATP
Description: as §1, §2, §3, §4, §5, §6
Assay 2: In Vitro DGK Inhibition Assays—Method B
The DGKα and DGKζ reactions were performed using either extruded liposome (DGKα and DGKζ LIPGLO assays) or detergent/lipid micelle substrate (DGKα and DGKζ assays).

Human whole blood IFN-γ = test: Assay 10: Human Whole Blood IFN-γ Assay; assay type: cell-based; conditions: anti-CD3 and anti-CD28 stimulation, 100% = 3 μM reference compound, read-out: INFg Whole Blood Normalized Agonist EC50
Description: Assay 10: Human Whole Blood IFN-γ Assay
Human venous whole blood (22.5 μL per well), obtained from healthy donors, was pre-treated with compounds for one hour at 37° C. in a humidified 95% air/5% CO2 incubator. The blood was stimulated with 2.5 μL anti-human CD3 and anti-CD28 mAb at a final concentration of 1 μg/mL each for 24 hours at 37° C. IFN-7 in the supernatants was measured using AlphLISA kit (Cat #AL217).

Sequence of DGKζ (Q13574 other isoform, or with tags, fused parts or gaps): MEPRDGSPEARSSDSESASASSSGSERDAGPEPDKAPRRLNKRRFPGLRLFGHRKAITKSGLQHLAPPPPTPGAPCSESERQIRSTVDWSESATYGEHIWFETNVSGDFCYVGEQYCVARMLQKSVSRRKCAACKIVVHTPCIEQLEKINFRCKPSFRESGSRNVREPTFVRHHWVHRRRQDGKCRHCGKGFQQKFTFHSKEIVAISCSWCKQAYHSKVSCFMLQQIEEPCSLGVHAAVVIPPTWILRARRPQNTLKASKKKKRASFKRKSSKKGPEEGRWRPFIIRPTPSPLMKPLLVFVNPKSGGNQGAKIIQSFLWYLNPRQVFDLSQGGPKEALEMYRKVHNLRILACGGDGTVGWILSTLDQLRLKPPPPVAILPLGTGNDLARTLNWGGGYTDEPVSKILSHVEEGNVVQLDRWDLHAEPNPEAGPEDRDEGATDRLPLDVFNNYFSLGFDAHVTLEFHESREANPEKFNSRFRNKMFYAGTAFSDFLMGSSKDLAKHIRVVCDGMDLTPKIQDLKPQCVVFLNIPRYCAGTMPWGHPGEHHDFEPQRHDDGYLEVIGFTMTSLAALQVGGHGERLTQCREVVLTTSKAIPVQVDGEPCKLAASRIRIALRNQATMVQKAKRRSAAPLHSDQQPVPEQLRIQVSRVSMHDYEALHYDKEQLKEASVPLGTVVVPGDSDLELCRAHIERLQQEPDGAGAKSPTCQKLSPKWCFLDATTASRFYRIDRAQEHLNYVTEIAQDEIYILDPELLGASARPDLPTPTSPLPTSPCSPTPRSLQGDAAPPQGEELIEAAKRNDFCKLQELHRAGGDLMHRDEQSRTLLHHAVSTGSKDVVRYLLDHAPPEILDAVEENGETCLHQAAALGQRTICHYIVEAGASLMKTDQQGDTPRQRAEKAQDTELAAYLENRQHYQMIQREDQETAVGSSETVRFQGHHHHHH
Sequence of DGKα (P23743 whole entry): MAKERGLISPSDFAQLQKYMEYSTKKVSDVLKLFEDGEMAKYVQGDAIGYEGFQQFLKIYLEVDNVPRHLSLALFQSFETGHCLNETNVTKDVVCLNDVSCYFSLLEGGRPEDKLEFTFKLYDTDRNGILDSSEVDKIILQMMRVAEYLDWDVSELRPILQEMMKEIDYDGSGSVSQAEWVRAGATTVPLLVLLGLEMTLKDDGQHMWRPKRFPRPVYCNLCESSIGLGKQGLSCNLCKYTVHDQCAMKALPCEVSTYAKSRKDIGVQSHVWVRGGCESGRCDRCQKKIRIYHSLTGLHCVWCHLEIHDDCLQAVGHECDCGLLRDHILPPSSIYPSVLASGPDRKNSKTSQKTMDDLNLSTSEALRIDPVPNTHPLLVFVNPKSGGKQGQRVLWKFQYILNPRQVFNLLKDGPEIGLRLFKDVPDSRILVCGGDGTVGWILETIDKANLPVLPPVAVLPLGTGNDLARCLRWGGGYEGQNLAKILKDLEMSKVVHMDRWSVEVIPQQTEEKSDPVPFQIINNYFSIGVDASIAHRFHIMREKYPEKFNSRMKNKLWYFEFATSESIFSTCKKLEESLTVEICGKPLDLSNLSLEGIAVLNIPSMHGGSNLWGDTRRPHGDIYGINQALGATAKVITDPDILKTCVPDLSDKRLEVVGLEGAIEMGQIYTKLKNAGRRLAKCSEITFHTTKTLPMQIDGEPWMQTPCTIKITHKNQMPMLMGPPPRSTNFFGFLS

Row | Compound | IC50 (DGKα) | IC50 (DGKζ) | EC50 (Human whole blood IFN-γ; 24 hours) | EC50 (Human whole blood IFN-γ; Homo sapiens, 24 h)
1 | C[C@@H]1CN(c2cc(=O)n(C)c3ccc(C#N)nc23)[C@@H](C)CN1C(C(=O)NCC(F)F)c1ccc(F)cc1 (stereo partly drawn) [Example 5, 2-((2R,5S)-4-(6-cyano-1-methyl-2-oxo-1,2-dihydro-1,5-naphthyridin-4-yl)-2,5-dimethylpiperazin-1-yl)-N-(2,2-difluoroethyl)-2-(4-fluorophenyl)acetamide] | 2.04 µM | 3.27 µM |  | 
2 | C[C@@H]1CN(c2cc(=O)n(C)c3ccc(C#N)nc23)[C@@H](C)CN1C(C(=O)NCCOCCOCCNC(=O)c1ccc2c(c1)C(=O)OC21c2ccc(O)cc2Oc2cc(O)ccc21)c1ccc(F)cc1 (stereo partly drawn) [Example 65, N-(2-(2-(2-(2-((2R,5S)-4-(6-cyano-1-methyl-2-oxo-1,2-dihydro-1,5-naphthyridin-4-yl)-2,5-dimethylpiperazin-1-yl)-2-(4-fluorophenyl)acetamido)ethoxy)ethoxy)ethyl)-3′,6′-dihydroxy-3-oxo-3H-spiro[isobenzofuran-1,9′-xanthene]-5-carboxamide] | 96.5 µM | 56.6 µM |  | 
3 | C[C@@H]1CN(c2cc(=O)n(C)c3ccc(C#N)nc23)[C@@H](C)CN1C(CC(=O)NC(C)(C)C)c1ccc(F)cc1 (single isomer, unassigned) [Example 34] | 4.04 µM | 6.84 µM |  | 
4 | C[C@@H]1CN(c2cc(=O)n(C)c3ccc(C#N)nc23)[C@@H](C)CN1C(C(=O)N1CCOCC1)c1ccc(F)cc1 (stereo partly drawn) [Example 17, 8-((2S,5R)-4-(1-(4-fluorophenyl)-2-morpholino-2-oxoethyl)-2,5-dimethylpiperazin-1-yl)-5-methyl-6-oxo-5,6-dihydro-1,5-naphthyridine-2-carbonitrile] | 2.56 µM | 7.75 µM | 1.49 µM | 
5 | C[C@@H]1CN(c2cc(=O)n(C)c3ccc(C#N)nc23)[C@@H](C)CN1C(C(=O)N1CCOCC1)c1ccc(F)cc1 (stereo partly drawn) [Example 18, 8-((2S,5R)-4-(1-(4-fluorophenyl)-2-morpholino-2-oxoethyl)-2,5-dimethylpiperazin-1-yl)-5-methyl-6-oxo-5,6-dihydro-1,5-naphthyridine-2-carbonitrile] | 24.8 µM | 42.9 µM | 20 µM | 
6 | C[C@@H]1CN(c2cc(=O)n(C)c3ccc(C#N)nc23)[C@@H](C)CN1C(C(=O)N1CCCCC1)c1ccc(F)cc1 (stereo partly drawn) [Example 12] | 5.12 µM | 6.68 µM |  | 
7 | C[C@@H]1CN(c2cc(=O)n(C)c3ccc(C#N)nc23)[C@@H](C)CN1C(C(=O)Nc1ccon1)c1ccc(F)cc1 (stereo partly drawn) [Example 29, 2-((2R,5S)-4-(6-cyano-1-methyl-2-oxo-1,2-dihydro-1,5-naphthyridin-4-yl)-2,5-dimethylpiperazin-1-yl)-2-(4-fluorophenyl)-N-(isoxazol-3-yl)acetamide] | 5.57 µM | 2.44 µM |  | 3.75 µM
8 | C[C@@H]1CN(c2cc(=O)n(C)c3ccc(C#N)nc23)[C@@H](C)CN1C(C(=O)N1CCN(C)CC1)c1ccc(F)cc1 (stereo partly drawn) [Example 19, 8-((2S,5R)-4-(1-(4-fluorophenyl)-2-(4-methylpiperazin-1-yl)-2-oxoethyl)-2,5-dimethylpiperazin-1-yl)-5-methyl-6-oxo-5,6-dihydro-1,5-naphthyridine-2-carbonitrile] | 37.1 µM | 172 µM |  | 3.44 µM
9 | C[C@@H]1CN(c2cc(=O)n(C)c3ccc(C#N)nc23)[C@@H](C)CN1C(CC(=O)NC(C)(C)C)c1ccc(F)cc1 (single isomer, unassigned) [Example 33] | 6.36 µM | 11.1 µM |  | 
10 | C[C@@H]1CN(c2cc(=O)n(C)c3ccc(C#N)nc23)[C@@H](C)CN1C(C(=O)N1CCN(C)CC1)c1ccc(F)cc1 (stereo partly drawn) [Example 20, 8-((2S,5R)-4-(1-(4-fluorophenyl)-2-(4-methylpiperazin-1-yl)-2-oxoethyl)-2,5-dimethylpiperazin-1-yl)-5-methyl-6-oxo-5,6-dihydro-1,5-naphthyridine-2-carbonitrile] | 253 µM | 83.3 µM |  | 

Now those with a lower IC50 (DGKα), led by results:

Row | IC50 (DGKα) | IC50 (DGKζ) | Compound | EC50 (Human whole blood IFN-γ; 24 hours) | EC50 (Human whole blood IFN-γ; Homo sapiens, 24 h)
11 | 0.83 µM | 4.12 µM | CC(C)N(C)C(=O)CC(c1ccc(F)cc1)N1C[C@H](C)N(c2cc(=O)n(C)c3ccc(C#N)nc23)C[C@H]1C (stereo partly drawn) [Example 42, 3-[(2R,5S)-4-(6-cyano-1-methyl-2-oxo-1,2-dihydro-1,5-naphthyridin-4-yl)-2,5-dimethylpiperazin-1-yl]-3-(4-fluorophenyl)-N-methyl-N-(propan-2-yl)propanamide] | 1.37 µM | 
12 | 0.07 µM | 0.19 µM | C#CCCC1(CCCOC(=O)C(c2ccc(F)cc2)N2C[C@H](C)N(c3cc(=O)n(C)c4ccc(C#N)nc34)C[C@H]2C)N=N1 (stereo partly drawn) [Example 57, 3-(3-(but-3-yn-1-yl)-3H-diazirin-3-yl)propyl 2-((2R,5S)-4-(6-cyano-1-methyl-2-oxo-1,2-dihydro-1,5-naphthyridin-4-yl)-2,5-dimethylpiperazin-1-yl)-2-(4-fluorophenyl)acetate] |  | 0.12 µM
13 | 0.08 µM | 0.19 µM | C[C@@H]1CN(c2cc(=O)n(C)c3ccc(C#N)nc23)[C@@H](C)CN1C(C(=O)OCCC1(C)N=N1)c1ccc(F)cc1 (stereo partly drawn) [Example 62, 2-(3-methyl-3H-diazirin-3-yl)ethyl 2-((2R,5S)-4-(6-cyano-1-methyl-2-oxo-1,2-dihydro-1,5-naphthyridin-4-yl)-2,5-dimethylpiperazin-1-yl)-2-(4-fluorophenyl)acetate] |  | 0.57 µM
14 | 0.02 µM | 0.14 µM | C[C@@H]1CN(c2cc(=O)n(C)c3ccc(C#N)nc23)[C@@H](C)CN1C(C(=O)Nc1ccon1)c1ccc(F)cc1 (stereo partly drawn) [Example 30, 2-((2R,5S)-4-(6-cyano-1-methyl-2-oxo-1,2-dihydro-1,5-naphthyridin-4-yl)-2,5-dimethylpiperazin-1-yl)-2-(4-fluorophenyl)-N-(isoxazol-3-yl)acetamide] |  | 
15 | 0.16 µM | 0.41 µM | C[C@@H]1CN(c2cc(=O)n(C)c3ccc(C#N)nc23)[C@@H](C)CN1C(C(=O)OCCOCCOCCNC(=O)c1ccc2c(c1)C(=O)OC21c2ccc(O)cc2Oc2cc(O)ccc21)c1ccc(F)cc1 (stereo partly drawn) [Example 68, 2-(2-(2-(3′,6′-dihydroxy-3-oxo-3H-spiro[isobenzofuran-1,9′-xanthene]-5-carboxamido)ethoxy)ethoxy)ethyl 2-((2R,5S)-4-(6-cyano-1-methyl-2-oxo-1,2-dihydro-1,5-naphthyridin-4-yl)-2,5-dimethylpiperazin-1-yl)-2-(4-fluorophenyl)acetate] |  | 
16 | 0.51 µM | 1.22 µM | C[C@@H]1CN(c2cc(=O)n(C)c3ccc(C#N)nc23)[C@@H](C)CN1C(C(=O)N1CCCCC1)c1ccc(F)cc1 (single isomer, unassigned) [Example 11] |  | 

From patent US12454531B2, “Substituted piperazine derivatives useful as T cell activators” (BRISTOL-MYERS SQUIBB COMPANY, priority 2019, dated 2025)
